Assay results: ChEMBL document CHEMBL1129259 (J Med Chem, 1996)

Molecular target: Melatonin receptor (Gallus gallus, UniProt P49288+P51050+P49285)
Assay: In vitro binding affinity against melatonin receptor using 2-[125I]iodomelatonin (0.05 nM) and chicken brain membranes
Set-up: species or system Membrane

Ki [nM] | SMILES
1640 | CC(=O)NCCc1c[nH]c2ccc(O)cc12 [ACETYLSEROTONIN]
22.8 | COc1ccc2ccc(O)c3c2c1CC(NC(C)=O)C3 (stereo not drawn)
6 | CCC(=O)NC1Cc2cccc3ccc(OC)c(c23)C1 (stereo not drawn)
0.7 | COc1ccc2ccc(OC)c3c2c1CC(NC(C)=O)C3
195 | CC(=O)NC1Cc2cccc3cccc(c23)C1
168 | COc1cc2ccccc2c2c1CC(NC(C)=O)CC2 (stereo not drawn)
273 | COc1c2c(cc3ccccc13)CCC(NC(C)=O)C2 (stereo not drawn)
28.7 | COc1ccc2cccc3c2c1CC(NC(C)=O)C3 (stereo not drawn)
